Experimental data from article PMC11061835, “Elucidating the Mechanism of Metabolism of Cannabichromene by Human Cytochrome P450s” (Journal of Natural Products, 2024).
Several values for one entry are separate records, joined by “and”; a condition that tells them apart may be missing. Identical values can stand only once.

What was measured:
[1] = target: CYP2D6 (Homo sapiens, UniProt P10635); experiment: CBC metabolism by CYP2D6; type: in vitro ADME; parameters: His-tag; made in house; host or cells: E. coli DH-5α with pTGro7 plasmid (CYP)
Procedure: To study the kinetics of CBC metabolism, concentration dependent metabolism of CBC was carried out in the presence of various CYPs using the following procedure. CYP2J2, CYP2C8, CYP2D6, CYP2C9, and CYP3A4 (final concentration 0.5 μM) were initially dissolved in lipid containing POPC:POPS (8:2 v/v) followed by addition of CPR (final concentration 0.6 μM) in 0.1 M potassium phosphate buffer (pH 7.4). CBC (5–80 μM) was added and incubated at 37 °C for 10 min. The reaction was triggered by NADPH and extracted using the exact sample protocol as mentioned in the HLM section.
Samples were analyzed with the 5500 QTRAP LC/MS/MS system (Sciex, Framingham, MA) in the Metabolomics Lab of Roy J. Carver Biotechnology Center, University of Illinois at Urbana–Champaign. Software Analyst 1.7.1 was used for data acquisition and analysis. The 1200 series HPLC system (Agilent Technologies, Santa Clara, CA) includes a degasser, an autosampler, and a binary pump. […] Multiple reaction monitoring (MRM) was used for quantitation: CBC m/z 315.1 → m/z 135.0; 1-acetoxy-6′,7′-dihydroxy-CBC (JM-I-73) m/z 349.1→ m/z 193.0; 1″-hydroxy-CBC (JM-I-66) m/z 331.1→ m/z 275.1; 6′,7′-epoxy-CBC (JM-I-27) m/z 331.1→ m/z 193.0; 7′,10′-ene-6′-hydroxy-CBC (JM-I-30) m/z 331.1→ m/z 193.0; 8′-hydroxy-CBC (JM-I-32) […]→ m/z 77.0. Internal standard EET-EA-d11 was monitored at m/z 375.2→ m/z 357.1.

[2] = target: T1, CYP2J2 (Homo sapiens, UniProt P51589); experiment: Spectroscopic titration (Soret shift), CYP2J2; type: binding; conditions: CYP2J2, absence of CPR
T1 construct: His-tag; made in house; host or cells: E. coli DH-5α with pTGro7 plasmid
T1 sequence (P51589 1-502): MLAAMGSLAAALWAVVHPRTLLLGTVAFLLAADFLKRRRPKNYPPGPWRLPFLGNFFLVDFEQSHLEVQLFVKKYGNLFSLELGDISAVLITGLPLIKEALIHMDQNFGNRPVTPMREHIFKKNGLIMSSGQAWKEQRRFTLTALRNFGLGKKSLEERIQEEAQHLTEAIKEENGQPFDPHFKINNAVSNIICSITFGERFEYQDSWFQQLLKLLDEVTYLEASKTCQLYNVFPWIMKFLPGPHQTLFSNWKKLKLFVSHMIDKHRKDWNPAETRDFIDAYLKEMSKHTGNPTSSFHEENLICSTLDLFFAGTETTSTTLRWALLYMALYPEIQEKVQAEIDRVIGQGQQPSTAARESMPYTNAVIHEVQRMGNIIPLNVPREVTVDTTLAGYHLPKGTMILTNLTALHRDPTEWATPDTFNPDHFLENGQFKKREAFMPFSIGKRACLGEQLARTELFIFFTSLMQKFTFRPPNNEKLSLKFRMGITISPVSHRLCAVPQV
Procedure: CBC binding to various CYPs was determined by analyzing the Soret shift from ∼417 to ∼390 nm. CBC (stock 10 mM) was dissolved in ethanol and titrated with different CYPs at room temperature. Buffer-exchanged CYP2J2, CYP2D6, CYP3A4, and CYP2C8 (concentrations of proteins were kept between 4 and 5 μM) were dissolved in 0.1 M phosphate buffer (pH = 7.4), and initial spectra were recorded from 200 to 800 nm with a prominent peak at 417 nm. The concentration of CBC was varied from 0 to 100 μM keeping the final concentration of substrate in EtOH not more than 1% in cuvette. 0–4 μL of stock CBC was added using a Hamilton syringe in both the sample and blank cuvettes. The mixture was incubated for 5 min at 37 °C, and absorbance spectra were recorded using a Cary Bio 300 UV–vis spectrophotometer (Agilent Technologies, Santa Clara, CA). To eliminate the background absorbance, we derived the final spectra by […].

[3] = test system: TRPV1; parameters: method as in PMID 30697147; conditions: read-out: agonism toward TRPV1; cited from earlier work

Sequence of CYP2D6 (P10635 whole entry): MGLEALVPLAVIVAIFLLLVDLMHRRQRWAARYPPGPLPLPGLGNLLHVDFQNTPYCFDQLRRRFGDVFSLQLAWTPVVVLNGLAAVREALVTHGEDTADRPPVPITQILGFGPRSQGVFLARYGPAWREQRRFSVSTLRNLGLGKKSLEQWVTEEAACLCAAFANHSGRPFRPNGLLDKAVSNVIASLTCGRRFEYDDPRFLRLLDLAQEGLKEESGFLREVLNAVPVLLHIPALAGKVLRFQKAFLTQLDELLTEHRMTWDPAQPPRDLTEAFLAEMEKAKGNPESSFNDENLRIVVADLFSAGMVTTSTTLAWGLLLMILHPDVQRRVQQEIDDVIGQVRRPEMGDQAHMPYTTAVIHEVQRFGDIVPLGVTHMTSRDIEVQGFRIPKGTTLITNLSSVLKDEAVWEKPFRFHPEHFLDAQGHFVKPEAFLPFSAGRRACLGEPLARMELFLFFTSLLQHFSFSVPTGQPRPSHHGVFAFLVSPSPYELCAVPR
Sequence of CYP2D6 (P16435 whole entry partner): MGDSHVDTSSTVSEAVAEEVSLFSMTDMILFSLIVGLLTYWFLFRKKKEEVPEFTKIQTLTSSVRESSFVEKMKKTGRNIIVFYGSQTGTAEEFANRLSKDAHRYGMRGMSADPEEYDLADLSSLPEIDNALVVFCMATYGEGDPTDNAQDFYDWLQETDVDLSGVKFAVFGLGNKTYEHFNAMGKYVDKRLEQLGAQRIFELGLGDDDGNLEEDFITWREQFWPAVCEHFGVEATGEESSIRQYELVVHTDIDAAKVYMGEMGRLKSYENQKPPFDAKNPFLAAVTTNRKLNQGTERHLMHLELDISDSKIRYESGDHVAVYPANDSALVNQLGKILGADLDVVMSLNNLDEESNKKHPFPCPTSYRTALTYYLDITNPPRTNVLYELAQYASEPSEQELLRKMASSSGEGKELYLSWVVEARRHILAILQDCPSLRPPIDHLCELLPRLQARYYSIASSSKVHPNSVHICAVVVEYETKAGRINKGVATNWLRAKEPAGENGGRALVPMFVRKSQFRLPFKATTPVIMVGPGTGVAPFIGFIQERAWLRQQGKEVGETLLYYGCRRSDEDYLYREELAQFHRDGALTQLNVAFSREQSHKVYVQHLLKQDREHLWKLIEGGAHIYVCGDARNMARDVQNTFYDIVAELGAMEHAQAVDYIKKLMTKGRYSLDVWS

Compound | preference for 8′-hydroxy-CBC formation compared to 6′,7′-epoxy-CBC [1] | ΔAmax (spin state change due to heme perturbation) [2] | Kd ([2]; read-out: Kd(app)) | EC50 [3] [µM]
CCCCCc1cc(O)c2c(c1)OC(C)(CC/C=C(\C)CO)C=C2 (stereo not shown) [8′-hydroxy-CBC] | 3–4 times | – | – | –
CCCCCc1cc(O)c2c(c1)OC(C)(CCC=C(C)C)C=C2 (stereo not shown) [CBC, Cannabichromene] | – | 0.04 ± 0.00 and ~0.04 | 3.06 µM and ~3 µM | < 10
